According to article PMC5218480 (PLoS ONE, 2017):

Test system: MV-4-11 cells
Assay: Gene expression microarray analysis (Affymetrix PrimeView) and GSEA
Format: cell-based, human
Set-up: RFU PODN (11730768_x_at) / Fold change /veh PODN (11730768_x_at) / RFU LINC00158 (11744669_a_at) / Fold change /veh LINC00158 (11744669_a_at) / RFU DUSP10 (11751237_a_at) / Fold change /veh DUSP10 (11751237_a_at) / RFU ID3 (11757404_x_at) / Fold change /veh ID3 (11757404_x_at) / RFU PLEKHG5 (11737974_s_at) / Fold change /veh PLEKHG5 (11737974_s_at) / RFU LRRC4B (11730491_at) / Fold change /veh LRRC4B (11730491_at) / RFU GIMAP4 (11747438_a_at) / Fold change /veh GIMAP4 (11747438_a_at) / RFU KRT8 (11758183_x_at) / Fold change /veh KRT8 (11758183_x_at) / RFU CNN1 (11734310_a_at) / Fold change /veh CNN1 (11734310_a_at) / RFU VPS37D (11726825_at) / Fold change /veh VPS37D (11726825_at) / RFU C10orf10 (11716522_x_at) / Fold change /veh C10orf10 (11716522_x_at) / RFU KIR2DL2 /// KIR2DL4 /// KIR2DL5A /// KIR2DL5B /// KIR2DS1 /// KIR2DS2 /// KIR2DS3 /// KIR2DS4 /// KIR3DL3 /// KIR3DL3 /// KIR3DS1 (11738374_at) / Fold change /veh KIR2DL2 /// KIR2DL4 /// KIR2DL5A /// KIR2DL5B /// KIR2DS1 /// KIR2DS2 /// KIR2DS3 /// KIR2DS4 /// KIR3DL3 /// KIR3DL3 /// KIR3DS1 (11738374_at) / RFU C1QL1 (11718748_at) / Fold change /veh C1QL1 (11718748_at) / RFU TMPRSS4 (11747572_a_at) / Fold change /veh TMPRSS4 (11747572_a_at) / RFU HAMP (11756126_x_at) / Fold change /veh HAMP (11756126_x_at) / RFU RNFT2 (11725882_a_at) / Fold change /veh RNFT2 (11725882_a_at) / RFU NR4A2 (11747474_a_at) / Fold change /veh NR4A2 (11747474_a_at) / RFU ABCC12 (11746883_a_at) / Fold change /veh ABCC12 (11746883_a_at) / RFU TMEM136 (11760407_x_at) / Fold change /veh TMEM136 (11760407_x_at) / RFU CLDN22 /// WWC2 (11732394_at) / Fold change /veh CLDN22 /// WWC2 (11732394_at) / RFU HLA-DPB1 (11760878_x_at) / Fold change /veh HLA-DPB1 (11760878_x_at) / RFU SPINT1 (11716480_a_at) / Fold change /veh SPINT1 (11716480_a_at) / RFU GAP43 (11754022_s_at) / Fold change /veh GAP43 (11754022_s_at) / RFU A4GNT (11735810_at) / Fold change /veh A4GNT (11735810_at) / RFU PRB3 (11715151_x_at) / Fold change /veh PRB3 (11715151_x_at) / RFU TUBB4B (11761932_at) / Fold change /veh TUBB4B (11761932_at) / RFU CAPN14 (11732068_a_at) / Fold change /veh CAPN14 (11732068_a_at) / RFU TMCC2 (11721928_a_at) / Fold change /veh TMCC2 (11721928_a_at) / RFU IRGQ (11745062_a_at) / Fold change /veh IRGQ (11745062_a_at) / RFU FAM174B (11720279_a_at) / Fold change /veh FAM174B (11720279_a_at) / RFU TMPRSS4 (11748680_a_at) / Fold change /veh TMPRSS4 (11748680_a_at) / RFU FAM212B (11763350_a_at) / Fold change /veh FAM212B (11763350_a_at) / RFU PLEKHG5 (11743358_a_at) / Fold change /veh PLEKHG5 (11743358_a_at) / RFU ZSCAN30 (11745921_a_at) / Fold change /veh ZSCAN30 (11745921_a_at) / RFU CMKLR1 (11741424_a_at) / Fold change /veh CMKLR1 (11741424_a_at) / RFU LOC101060620 /// MAPK8IP1 (11723275_at) / Fold change /veh LOC101060620 /// MAPK8IP1 (11723275_at) / RFU SPTSSB (11747773_x_at) / Fold change /veh SPTSSB (11747773_x_at) / RFU PRSS12 (11739890_at) / Fold change /veh PRSS12 (11739890_at) / RFU BIN1 (11741810_x_at) / Fold change /veh BIN1 (11741810_x_at) / RFU WNT11 (11732464_a_at) / Fold change /veh WNT11 (11732464_a_at) / RFU C10orf10 (11716521_a_at) / Fold change /veh C10orf10 (11716521_a_at) / RFU C5orf56 (11738089_at) / Fold change /veh C5orf56 (11738089_at) / RFU CYB561 (11721691_x_at) / Fold change /veh CYB561 (11721691_x_at) / RFU ANKRD19P (11752326_a_at) / Fold change /veh ANKRD19P (11752326_a_at) / RFU OR2T12 /// OR2T33 /// OR2T8 (11738714_s_at) / Fold change /veh OR2T12 /// OR2T33 /// OR2T8 (11738714_s_at) / RFU VCAN (11748164_a_at) / Fold change /veh VCAN (11748164_a_at) / RFU JSRP1 (11732532_at) / Fold change /veh JSRP1 (11732532_at) / RFU KRTAP10-11 (11738290_x_at) / Fold change /veh KRTAP10-11 (11738290_x_at) / RFU MYO3A (11730013_a_at) / Fold change /veh MYO3A (11730013_a_at) / RFU EBF3 (11725865_a_at) / Fold change /veh EBF3 (11725865_a_at) / RFU CAMK2N1 (11719241_x_at) / Fold change /veh CAMK2N1 (11719241_x_at) / RFU C5orf56 (11738088_a_at) / Fold change /veh C5orf56 (11738088_a_at) / RFU OLFML3 (11715873_a_at) / Fold change /veh OLFML3 (11715873_a_at) / RFU LOC100653217 /// NTM (11731650_a_at) / Fold change /veh LOC100653217 /// NTM (11731650_a_at) / RFU MAPK11 (11762145_a_at) / Fold change /veh MAPK11 (11762145_a_at) / RFU FIZ1 (11724087_x_at) / Fold change /veh FIZ1 (11724087_x_at) / RFU OASL (11726364_x_at) / Fold change /veh OASL (11726364_x_at) / RFU SOX15 (11748057_x_at) / Fold change /veh SOX15 (11748057_x_at) / RFU CD79A (11719716_a_at) / Fold change /veh CD79A (11719716_a_at) / RFU HIST1H1D (11736915_at) / Fold change /veh HIST1H1D (11736915_at) / RFU CASKIN2 (11723855_a_at) / Fold change /veh CASKIN2 (11723855_a_at) / RFU LOC730098 (11760151_x_at) / Fold change /veh LOC730098 (11760151_x_at) / RFU OR4N2 (11742367_at) / Fold change /veh OR4N2 (11742367_at) / RFU PRRT2 (11749266_a_at) / Fold change /veh PRRT2 (11749266_a_at) / RFU SNX32 (11753110_a_at) / Fold change /veh SNX32 (11753110_a_at) / RFU CDHR5 (11726645_a_at) / Fold change /veh CDHR5 (11726645_a_at) / RFU RCAN1 (11760418_a_at) / Fold change /veh RCAN1 (11760418_a_at) / RFU FAM167A (11723789_a_at) / Fold change /veh FAM167A (11723789_a_at) / RFU FAM26E (11764081_at) / Fold change /veh FAM26E (11764081_at) / RFU ISYNA1 (11749810_s_at) / Fold change /veh ISYNA1 (11749810_s_at) / RFU ACY1 (11761880_at) / Fold change /veh ACY1 (11761880_at) / RFU 11764098_at / Fold change /veh 11764098_at / RFU SAMD14 (11745864_x_at) / Fold change /veh SAMD14 (11745864_x_at) / RFU NPB (11741838_a_at) / Fold change /veh NPB (11741838_a_at) / RFU TMPRSS6 (11731388_a_at) / Fold change /veh TMPRSS6 (11731388_a_at) / RFU KRTAP10-2 (11738614_at) / Fold change /veh KRTAP10-2 (11738614_at) / RFU ARHGAP8 /// PRR5-ARHGAP8 (11727945_x_at) / Fold change /veh ARHGAP8 /// PRR5-ARHGAP8 (11727945_x_at) / RFU KRTAP5-7 /// NADSYN1 (11734609_at) / Fold change /veh KRTAP5-7 /// NADSYN1 (11734609_at) / RFU RASL12 (11751679_a_at) / Fold change /veh RASL12 (11751679_a_at) / RFU CDKN2B (11736163_a_at) / Fold change /veh CDKN2B (11736163_a_at) / RFU PRF1 (11729649_at) / Fold change /veh PRF1 (11729649_at) / RFU, ZNF638 /// ZNF638-IT1 / Fold change vs veh, ZNF638 /// ZNF638-IT1 / RFU, PANK3 / Fold change vs veh, PANK3 / RFU, SH3YL1 / Fold change vs veh, SH3YL1 / RFU, ZEB2 / Fold change vs veh, ZEB2 / RFU, NRIP1 / Fold change vs veh, NRIP1 / RFU, PTTG1IP / Fold change vs veh, PTTG1IP / RFU, CAPN2 / Fold change vs veh, CAPN2 / RFU, MED14 / Fold change vs veh, MED14 / RFU, SNORA58 / Fold change vs veh, SNORA58 / RFU, C1orf63 / Fold change vs veh, C1orf63 / RFU, LRRFIP1 / Fold change vs veh, LRRFIP1 / RFU, NDUFAF7 / Fold change vs veh, NDUFAF7 / RFU, SLC12A2 / Fold change vs veh, SLC12A2 / RFU, IBTK / Fold change vs veh, IBTK / RFU, ESF1 / Fold change vs veh, ESF1 / Fold change vs veh, TMEM50B / RFU, TAOK1 / Fold change vs veh, TAOK1 / RFU, ACBD3 / Fold change vs veh, ACBD3 / RFU, TMA16 / Fold change vs veh, TMA16 / RFU, RWDD3 / Fold change vs veh, RWDD3 / RFU, BCAT1 / Fold change vs veh, BCAT1 / RFU, EDEM3 / Fold change vs veh, EDEM3 / RFU, TMEM33 / Fold change vs veh, TMEM33 / RFU, WDR75 / Fold change vs veh, WDR75 / RFU, AHCTF1 / Fold change vs veh, AHCTF1 / RFU, TFRC / Fold change vs veh, TFRC / RFU, ZDHHC17 / Fold change vs veh, ZDHHC17 / RFU, NOM1 / Fold change vs veh, NOM1 / RFU, ARL8B / Fold change vs veh, ARL8B / RFU, ZBTB11 / Fold change vs veh, ZBTB11 / RFU, TAMM41 / Fold change vs veh, TAMM41 / RFU, KIAA1704 /// LOC100996395 / Fold change vs veh, KIAA1704 /// LOC100996395 / RFU, ING1 / Fold change vs veh, ING1 / RFU, TRMT61B / Fold change vs veh, TRMT61B / RFU, FUBP3 / Fold change vs veh, FUBP3 / RFU, TP53 / Fold change vs veh, TP53 / RFU, TNKS2 / Fold change vs veh, TNKS2 / RFU, ZFP14 / Fold change vs veh, ZFP14 / RFU, ACTR2 / Fold change vs veh, ACTR2 / RFU, PPP3R1 / Fold change vs veh, PPP3R1 / RFU, PIK3R1 / Fold change vs veh, PIK3R1 / RFU, HNRNPA1 / Fold change vs veh, HNRNPA1 / RFU, RNF170 / Fold change vs veh, RNF170 / RFU, ZNF28 / Fold change vs veh, ZNF28 / RFU, RNGTT / Fold change vs veh, RNGTT / RFU, OGT / Fold change vs veh, OGT / RFU, BRD1 / Fold change vs veh, BRD1 / RFU, MARS / Fold change vs veh, MARS / RFU, ZNF655 / Fold change vs veh, ZNF655 / RFU, FAHD1 / Fold change vs veh, FAHD1 / RFU, BDP1 / Fold change vs veh, BDP1 / RFU, LRRCC1 / Fold change vs veh, LRRCC1 / RFU, ARID1A / Fold change vs veh, ARID1A / RFU, ZNF146 / Fold change vs veh, ZNF146 / RFU, ZNF330 / Fold change vs veh, ZNF330 / RFU, GPN3 / Fold change vs veh, GPN3 / RFU, C9orf123 / Fold change vs veh, C9orf123 / RFU, N4BP2L2 / Fold change vs veh, N4BP2L2 / RFU, ARFIP1 / Fold change vs veh, ARFIP1 / RFU, FAM179B / Fold change vs veh, FAM179B / RFU, BCL10 / Fold change vs veh, BCL10 / RFU, UHRF1BP1L / Fold change vs veh, UHRF1BP1L / RFU, BET1 / Fold change vs veh, BET1 / RFU, CNOT2 / Fold change vs veh, CNOT2 / RFU, ZNF268 / Fold change vs veh, ZNF268 / Fold change vs veh, ZNF507 / RFU, DGCR2 / Fold change vs veh, DGCR2 / RFU, WDSUB1 / Fold change vs veh, WDSUB1 / Fold change vs veh, HSP90B1 /// MIR3652 / RFU, ADSS / Fold change vs veh, ADSS / RFU, GK / Fold change vs veh, GK / RFU, ZNF148 / Fold change vs veh, ZNF148 / RFU, TAF9 / Fold change vs veh, TAF9 / RFU, SLC1A5 / Fold change vs veh, SLC1A5 / RFU, SLMO2 / Fold change vs veh, SLMO2 / RFU, ABCC4 / Fold change vs veh, ABCC4 / RFU, LOC101060439 /// RAP1B / Fold change vs veh, LOC101060439 /// RAP1B / RFU, RFX7 / Fold change vs veh, RFX7 / RFU, GTPBP10 / Fold change vs veh, GTPBP10 / RFU, CNEP1R1 / Fold change vs veh, CNEP1R1 / RFU, BIVM-ERCC5 /// ERCC5 / Fold change vs veh, BIVM-ERCC5 /// ERCC5 / RFU, ILF3 / Fold change vs veh, ILF3 / RFU 11762660_at / Fold change /veh 11762660_at / RFU VCAN (11757783_s_at) / Fold change /veh VCAN (11757783_s_at) / RFU DDX43 (11728927_at) / Fold change /veh DDX43 (11728927_at) / RFU KRT8 (11758188_x_at) / Fold change /veh KRT8 (11758188_x_at) / RFU NKD1 (11759106_at) / Fold change /veh NKD1 (11759106_at) / RFU SRD5A1 (11742802_a_at) / Fold change /veh SRD5A1 (11742802_a_at) / RFU TPSAB1 /// TPSB2 (11721975_s_at) / Fold change /veh TPSAB1 /// TPSB2 (11721975_s_at) / RFU GSTM3 (11746129_a_at) / Fold change /veh GSTM3 (11746129_a_at) / RFU IL23R (11737362_x_at) / Fold change /veh IL23R (11737362_x_at) / RFU TMEM51 (11727254_a_at) / Fold change /veh TMEM51 (11727254_a_at) / RFU PIWIL2 (11732686_x_at) / Fold change /veh PIWIL2 (11732686_x_at) / RFU ORM1 (11744905_x_at) / Fold change /veh ORM1 (11744905_x_at) / RFU CCDC152 (11743942_at) / Fold change /veh CCDC152 (11743942_at) / RFU ECM1 (11717891_a_at) / Fold change /veh ECM1 (11717891_a_at) / RFU IL23R (11748794_a_at) / Fold change /veh IL23R (11748794_a_at) / RFU TNFAIP8L3 (11732012_x_at) / Fold change /veh TNFAIP8L3 (11732012_x_at) / RFU MBOAT4 (11741988_at) / Fold change /veh MBOAT4 (11741988_at) / RFU 11764193_at / Fold change /veh 11764193_at / RFU TMEM53 (11763286_at) / Fold change /veh TMEM53 (11763286_at) / RFU MAGEB2 (11727129_at) / Fold change /veh MAGEB2 (11727129_at) / RFU TMEM200A (11744735_a_at) / Fold change /veh TMEM200A (11744735_a_at) / RFU CCDC152 (11751479_a_at) / Fold change /veh CCDC152 (11751479_a_at) / RFU FAM211A (11726209_a_at) / Fold change /veh FAM211A (11726209_a_at) / RFU RGS16 (11746705_a_at) / Fold change /veh RGS16 (11746705_a_at) / RFU VCAN (11755009_s_at) / Fold change /veh VCAN (11755009_s_at) / RFU RHOB (11743442_s_at) / Fold change /veh RHOB (11743442_s_at) / RFU RGS16 (11720943_a_at) / Fold change /veh RGS16 (11720943_a_at) / RFU RGS16 (11720944_at) / Fold change /veh RGS16 (11720944_at) / RFU, VPS4B / Fold change vs veh, VPS4B / RFU, CREB1 / Fold change vs veh, CREB1 / RFU, DNAJC13 / Fold change vs veh, DNAJC13 / RFU, GNAQ / Fold change vs veh, GNAQ / RFU, CDK5R1 / Fold change vs veh, CDK5R1 / RFU, ZRANB3 / Fold change vs veh, ZRANB3 / RFU, CUL4A / Fold change vs veh, CUL4A / RFU, CCNY / Fold change vs veh, CCNY / RFU, UFL1 / Fold change vs veh, UFL1 / RFU, COG3 / Fold change vs veh, COG3 / RFU, DIAPH2 / Fold change vs veh, DIAPH2 / RFU, SKA2 / Fold change vs veh, SKA2 / RFU, AFF3 / Fold change vs veh, AFF3 / RFU, LMF1 / Fold change vs veh, LMF1 / RFU, IPO11 / Fold change vs veh, IPO11 / RFU, DFFB / Fold change vs veh, DFFB / RFU, FOXP1 / Fold change vs veh, FOXP1 / RFU, CARD8 / Fold change vs veh, CARD8 / RFU, STRN3 / Fold change vs veh, STRN3 / RFU, ADK / Fold change vs veh, ADK / RFU, RASSF2 / Fold change vs veh, RASSF2 / RFU, WIPF1 / Fold change vs veh, WIPF1 / RFU, LARP1B / Fold change vs veh, LARP1B / RFU, RASA1 / Fold change vs veh, RASA1 / RFU, RB1 / Fold change vs veh, RB1 / RFU, PPFIA1 / Fold change vs veh, PPFIA1 / RFU, MAT2A / Fold change vs veh, MAT2A / RFU, CCT5 / Fold change vs veh, CCT5 / RFU, WDR92 / Fold change vs veh, WDR92 / RFU, CUX1 / Fold change vs veh, CUX1 / RFU, TTC7A / Fold change vs veh, TTC7A / RFU, TMEM135 / Fold change vs veh, TMEM135 / RFU, DEPTOR / Fold change vs veh, DEPTOR / RFU, CPM / Fold change vs veh, CPM / RFU, DNAJB6 / Fold change vs veh, DNAJB6 / RFU, CACNA2D3 / Fold change vs veh, CACNA2D3 / RFU, DTX4 / Fold change vs veh, DTX4 / RFU, TFCP2 / Fold change vs veh, TFCP2 / RFU, GMCL1 /// GMCL1P1 / Fold change vs veh, GMCL1 /// GMCL1P1 / RFU, AEBP2 / Fold change vs veh, AEBP2 / RFU, SNHG1 /// SNORD22 /// SNORD25 /// SNORD26 /// SNORD27 /// SNORD28 /// SNORD29 /// SNORD31 / Fold change vs veh, SNHG1 /// SNORD22 /// SNORD25 /// SNORD26 /// SNORD27 /// SNORD28 /// SNORD29 /// SNORD31 / Fold change (Aza/veh), C12orf56 (ProbeSet 11735607_a_at) / Fold change (ACY-1035/veh), C12orf56 (ProbeSet 11735607_a_at) / Fold change (Aza/veh), FGFR1OP (ProbeSet 11751329_s_at) / Fold change (ACY-1035/veh), FGFR1OP (ProbeSet 11751329_s_at) / Fold change (Aza/veh), VPS36 (ProbeSet 11739960_a_at) / Fold change (ACY-1035/veh), VPS36 (ProbeSet 11739960_a_at) / RFU SYPL1 (11715823_x_at) / Fold change /veh SYPL1 (11715823_x_at) / RFU IGFBP7 (11715501_s_at) / Fold change /veh IGFBP7 (11715501_s_at) / RFU REEP3 (11722064_at) / Fold change /veh REEP3 (11722064_at) / RFU IGLL1 (11728026_x_at) / Fold change /veh IGLL1 (11728026_x_at): dose or concentration left out as unconfirmed
Conditions: ProbeSet 11727827_x_at; LIST B

With `Nc1ccc(-c2cccs2)cc1NC(=O)c1ccc2c(c1)cc(C1CC1)n2CCN1CCOCC1` [ACY-1035] the “Fold change vs veh, NDUFAF7” value was 1.01.
